In PubChem BioAssay (NCI):
“And” between values parts separate entries of the source, which are not always exact repeats. Equal entries are not always repeated.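 Tested at 5 concentrations; 48 h exposure; 96-well plates; endpoints linearly interpolated, else capped at highest concentration. GI50: concentration for 50% inhibition of growth. TGI: total growth inhibition.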

How the values were obtained:
Assay in all cases: DTP human tumour cell line panel, 48 h
A498 renal = tested on: A498 renal
SR leukemia = tested on: SR leukemia
M14 melanoma = tested on: M14 melanoma
K-562 leukemia = tested on: K-562 leukemia
OVCAR-4 ovarian = tested on: OVCAR-4 ovarian
UO-31 renal = tested on: UO-31 renal
RPMI-8226 leukemia = tested on: RPMI-8226 leukemia
SNB-75 CNS = tested on: SNB-75 CNS
EKVX NSCLC = tested on: EKVX NSCLC
DU-145 prostate = tested on: DU-145 prostate

SMILES | GI50 (A498 renal) | TGI (A498 renal) [µM] | GI50 (SR leukemia) [µM] | TGI (SR leukemia) [µM] | GI50 (M14 melanoma) | TGI (M14 melanoma) | GI50 (K-562 leukemia) | TGI (K-562 leukemia) | GI50 (OVCAR-4 ovarian) | TGI (OVCAR-4 ovarian) | GI50 (UO-31 renal) | TGI (UO-31 renal) | GI50 (RPMI-8226 leukemia) | TGI (RPMI-8226 leukemia) | GI50 (SNB-75 CNS) | TGI (SNB-75 CNS) | GI50 (EKVX NSCLC) | TGI (EKVX NSCLC) | GI50 (DU-145 prostate) | TGI (DU-145 prostate)
Nc1n[nH]c2ccc([C@@H]3Nc4cc5[nH]ncc5cc4[C@H]4C5CCC(C5)[C@@H]34)cc12 (some centres not stated) | 0.174 µM | 0.822 | 0.564 | > 100 | 0.294 µM | > 100 µM | 0.315 µM | > 100 µM | 9.3 µM | > 100 µM | 0.626 µM | > 100 µM | 0.354 µM | 12.6 µM | 0.27 µM | 22.9 µM | 0.485 µM | > 100 µM | 0.391 µM | > 100 µM
CCN(CC)C(=S)SSC(=S)N(CC)CC | 49.9 µM and 109 µM | 228 | 0.785 | 34.4 | 12.1 µM and 12.6 µM | 28.9 µM and 28.1 µM | 25.2 µM and 19.6 µM | 51.5 µM and 47.3 µM | 13.5 µM and 13 µM | 28.9 µM and 26.4 µM | 15.6 µM and 19.7 µM | 31.9 µM and 49 µM | 13.6 µM and 15 µM | 30.5 µM and 46.6 µM | 20.7 µM and 18.2 µM | > 56.7 µM and 57.3 µM | 25.7 µM and 25.6 µM | 84.6 µM and 73.3 µM | 24.5 µM and 31.7 µM | > 59.8 µM and 133 µM
CN(c1ccc(C#N)c(Cl)c1)C1CCC(NC(=O)c2ccc(N3CCN(C4CN(c5ccc6c(c5)C(=O)N(C5CCC(=O)NC5=O)C6=O)C4)CC3)cc2)CC1 (configuration not stated) | > 100 µM | > 100 | > 100 | > 100 | 21.7 µM | 64.3 µM | > 100 µM | > 100 µM | > 100 µM | > 100 µM | > 100 µM | > 100 µM | > 100 µM | > 100 µM | > 100 µM | > 100 µM | > 100 µM | > 100 µM | > 100 µM | > 100 µM
COc1cc2c(cc1-c1coc3cc(OCC=C(C)C)ccc3c1=O)OCO2 |  | > 100 |  | 33.3 |  | > 100 µM |  | > 100 µM |  | > 100 µM |  | > 100 µM |  | 66 µM |  | > 100 µM |  | > 100 µM |  | > 100 µM
CCOC1OC(=O)[C@H]2[C@@H]1[C@@H]1CC[C@H]2O1 (some centres not stated) | > 100 µM | > 100 | 33.8 | > 100 | > 100 µM | > 100 µM | > 100 µM | > 100 µM | > 100 µM | > 100 µM | > 100 µM | > 100 µM | > 29.3 µM | > 100 µM |  | > 100 µM | > 100 µM | > 100 µM | > 100 µM | > 100 µM
COc1cc2c(c(OC)c1OC)-c1c(cc3c(c1OC)OCO3)CC(C)C(C)(O)C2OC(=O)c1ccccc1 (configuration not stated) |  | > 100 |  | 55.9 |  | > 100 µM |  | > 100 µM |  | > 100 µM |  | 87.3 µM |  | 79.3 µM |  | > 100 µM |  | > 100 µM |  | > 100 µM
CCN(CC)CCCC(C)Nc1c(-c2ccccc2)cnc2cc(Cl)ccc12 (configuration not stated) | 2.71 µM | 13.8 | 3.14 | > 24.6 | 1.86 µM | 3.44 µM | 3.2 µM | 32 µM | 10.3 µM | 36.4 µM | 1.12 µM | 8.83 µM | 3.49 µM | 17.1 µM | 13.7 µM | 45.3 µM | 7.58 µM | 40.7 µM | 13 µM | 31.3 µM
O=C(Nc1cnc(C(F)(F)F)cn1)c1cc(Cl)ccc1O | 0.235 µM | 0.639 | 0.347 | 2.19 | 0.306 µM | 2.46 µM | 0.272 µM | > 100 µM | 0.254 µM | > 100 µM | 0.196 µM | 1.16 µM | 0.273 µM | 2.75 µM | 0.194 µM | 0.835 µM | 0.228 µM |  | 0.348 µM | > 100 µM
O=C1/C(=C/c2cccc(Br)c2)COc2ccc(O)c(O)c21 | 2.01 µM | 4.74 | 0.349 | 2.81 | 1.6 µM | 3.47 µM | 0.387 µM | 20.7 µM | 1.51 µM | 2.85 µM | 0.958 µM | 2.14 µM | 0.248 µM | 0.649 µM | 0.933 µM | 3.83 µM | 1.78 µM | 3.52 µM | 1.42 µM | 2.99 µM
O=C(O)COc1ccc(C(=O)/C(SS/C(C(=O)c2ccc(OCC(=O)O)c(Cl)c2Cl)=C2\C=C(c3ccc(Br)cc3)SS2)=C2/C=C(c3ccc(Br)cc3)SS2)c(Cl)c1Cl |  | > 91.7 |  | 8.59 |  | > 91.6 µM |  | > 100 µM |  | > 50.1 µM |  | 20.2 µM |  | 18.2 µM |  | 45.4 µM |  | > 100 µM |  | > 100 µM
O=NN(CCCl)C(=O)NC1CCC(=O)NC1=O (configuration not stated) |  | 470 |  | 674 |  | 905 µM |  | 595 µM |  | > 993 µM |  | 1250 µM |  | 617 µM |  | 396 µM |  | 515 µM |  | 1060 µM
Brc1cccc(-c2cc(-c3ccc4nccnc4c3)[nH]n2)c1 | 0.418 µM | 1.86 | 0.139 | > 104 | 0.43 µM | > 250 µM | 0.215 µM | > 250 µM | 2.05 µM | > 250 µM | 1.9 µM | > 250 µM | 0.865 µM | 76.4 µM | 0.674 µM | 2.38 µM | 4.24 µM | > 250 µM | 1.09 µM | > 200 µM
COc1cccc(C2C(C#N)=C(N)Oc3c2ccc2ccccc32)c1 (configuration not stated) | 0.0108 µM | 13.6 | < 0.01 | > 66.7 | < 0.012 µM | 13.3 µM | < 0.01 µM | > 44 µM |  | 18.6 µM | 0.054 µM | 14.3 µM | < 0.019 µM | 3.22 µM | < 0.0151 µM | 15.1 µM | 0.0617 µM | 19.6 µM | 0.034 µM | 1.43 µM
